Non-standard residues stand in square brackets, D forms with d. Residues, ends and D or L forms follow the SMILES beside them. *: point of attachment. Sta = CC(C)C[C@H](N)[C@@H](O)CC(=O)O; Isovaleryl = CC(C)CC(=O)*
How the values were obtained:
[1] = tested on: Con A Oo12 ApM activity; experiment: Con A O12 aminopeptidase inhibition assay, ApM (leucine p-nitroanilide); type: biochemical, Ostertagia ostertagi
Experimental: (§1) The effect of various protease inhibitors on Oo12 activity was assayed and included amastatin (aminopeptidase inhibitor), actinonin (aminopeptidase inhibitor), bestatin (aminopeptidase inhibitor), EDTA (metallo-protease inhibitor), E64 (cysteine protease inhibitor), pepstatin (aspartic protease inhibitor), 1,10 phenanthroline (metallo-protease inhibitor) and 3,4-dichloroisocoumarin (DCI, serine protease inhibitor). 10 μl Con A Oo12 and 100 μl 50 mM Mops buffer, pH 7.0 was added to a microtitre plate well and 2-4 μl of enzyme inhibitor added, to give a final concentration of 0.5 mM and 1 mM actinonin, 50 μM and 100 μM bestatin, 1 mM and 15 mM EDTA, 50 μM and 100 μM E64, 10 and 50 μM pepstatin, 1 mM and 10 mM 1,10 phenanthroline, 100 μM and 500 μM DCI. The plate was preincubated at 37° C. for 20-28 minutes and then assayed for ApM and ApA activity. 100 μl 2 mM leucine p-nitroanilide (ApM) or α-glutamic p-nitroanilide (ApA)/Mops was added per well and the optical density (OD) at 405 nm read using an Elisa plate reader. The plates were incubated at 37° C. for 45-48 minutes and the final OD reading was then taken. The OD change per minute per 10 μl sample was calculated. All assays were carried out in triplicate.

[2] = tested on: Con A Oo12 ApA activity; experiment: Con A O12 aminopeptidase inhibition assay, ApA (α-glutamic p-nitroanilide); type: biochemical, Ostertagia ostertagi
Experimental: as §1

| SMILES | Leu-pNA enzyme activity ([1]; inhibitor 1 mM) [nmoles/min/10 μl ConA O12] | Leu-pNA enzyme inhibition ([1]; inhibitor 1 mM) [%] | α-Glu-pNA enzyme activity ([2]; inhibitor 1 mM) [nmoles/min/10 μl ConA O12] | α-Glu-pNA enzyme inhibition ([2]; inhibitor 1 mM) [%] | Leu-pNA enzyme activity ([1]; inhibitor 100 μM) [nmoles/min/10 μl ConA O12] | Leu-pNA enzyme inhibition ([1]; inhibitor 100 μM) | α-Glu-pNA enzyme activity ([2]; inhibitor 100 μM) [nmoles/min/10 μl ConA O12] | α-Glu-pNA enzyme inhibition ([2]; inhibitor 100 μM) [%] | Leu-pNA enzyme activity ([1]; inhibitor 50 μM) [nmoles/min/10 μl ConA O12] | Leu-pNA enzyme inhibition ([1]; inhibitor 50 μM) | α-Glu-pNA enzyme activity ([2]; inhibitor 50 μM) [nmoles/min/10 μl ConA O12] | α-Glu-pNA enzyme inhibition ([2]; inhibitor 50 μM) [%] | further results |
| --- | --- | --- | --- | --- | --- | --- | --- | --- | --- | --- | --- | --- | --- |
| CCCCC[C@H](CC(=O)NO)C(=O)N[C@H](C(=O)N1CCC[C@H]1CO)C(C)C [Actinonin, actinonin] | 0.448 | 63 | 0.029 | 91 |  |  |  |  |  |  |  |  | Leu-pNA enzyme activity ([1]; inhibitor 0.5 mM): 0.621 nmoles/min/10 μl ConA O12; Leu-pNA enzyme inhibition ([1]; inhibitor 0.5 mM): 49%; α-Glu-pNA enzyme activity ([2]; inhibitor 0.5 mM): 0.016 nmoles/min/10 μl ConA O12; α-Glu-pNA enzyme inhibition ([2]; inhibitor 0.5 mM): 95% |
| O=c1oc(Cl)c(Cl)c2ccccc12 [DCI, 3,4-dichloroisocoumarin] |  |  |  |  | 1.229 | 0% | 0.252 | 24 |  |  |  |  | Leu-pNA enzyme activity ([1]; inhibitor 500 μM): 1.129 nmoles/min/10 μl ConA O12; Leu-pNA enzyme inhibition ([1]; inhibitor 500 μM): 8%; α-Glu-pNA enzyme activity ([2]; inhibitor 500 μM): 0.216 nmoles/min/10 μl ConA O12; α-Glu-pNA enzyme inhibition ([2]; inhibitor 500 μM): 35% |
| CC(C)CC(=O)N[C@H](C(=O)N[C@H](C(=O)N[C@@H](CC(C)C)[C@@H](O)CC(=O)N[C@@H](C)C(=O)N[C@@H](CC(C)C)[C@@H](O)CC(=O)O)C(C)C)C(C)C [Pepstatin, pepstatin] (Isovaleryl-VV[Sta]A[Sta]-OH) |  |  |  |  |  |  |  |  | 1.263 | 0 (+3%) | 0.315 | 6 | Leu-pNA enzyme activity ([1]; inhibitor 10 μM): 1.297 nmoles/min/10 μl ConA O12; Leu-pNA enzyme inhibition ([1]; inhibitor 10 μM): 0 (+6%); α-Glu-pNA enzyme activity ([2]; inhibitor 10 μM): 0.326 nmoles/min/10 μl ConA O12; α-Glu-pNA enzyme inhibition ([2]; inhibitor 10 μM): 2% |
| c1cnc2c(c1)ccc1cccnc12 [1,10 Phenanthroline, 1,10 phenanthroline] | 0.005 | 99 | 0 | 100 |  |  |  |  |  |  |  |  | inhibitory effect on aminopeptidase activity ([1]; 10 mM): greatest inhibition; Leu-pNA enzyme activity ([1]; inhibitor 10 mM): 0 nmoles/min/10 μl ConA O12; Leu-pNA enzyme inhibition ([1]; inhibitor 10 mM): 100%; α-Glu-pNA enzyme activity ([2]; inhibitor 10 mM): 0 nmoles/min/10 μl ConA O12; α-Glu-pNA enzyme inhibition ([2]; inhibitor 10 mM): 100% |
| O=C(O)CN(CCN(CC(=O)O)CC(=O)O)CC(=O)O [EDTA] | 0.994 | 19 | 0.161 | 52 |  |  |  |  |  |  |  |  | Leu-pNA enzyme activity ([1]; inhibitor 15 mM): 0.784 nmoles/min/10 μl ConA O12; Leu-pNA enzyme inhibition ([1]; inhibitor 15 mM): 36%; α-Glu-pNA enzyme activity ([2]; inhibitor 15 mM): 0.112 nmoles/min/10 μl ConA O12; α-Glu-pNA enzyme inhibition ([2]; inhibitor 15 mM): 66% |
| CC(C)C[C@H](NC(=O)[C@@H](O)[C@H](N)Cc1ccccc1)C(=O)O [Bestatin, bestatin] |  |  |  |  | 0.022 | 98% | 0.119 | 64 | 0.045 | 96% | 0.174 | 48 |  |
| CC(C)C[C@H](NC(=O)[C@H]1O[C@@H]1C(=O)O)C(=O)NCCCCN=C(N)N [E64] |  |  |  |  | 1.278 | 0 (+4%) | 0.327 | 2 | 1.241 | 0 (+1%) | 0.323 | 3 |  |
